According to patent US10907212B2, “Inhibitors of cell adhesion” (Regents of the University of Minnesota, priority 2016, dated 2021):
Entries after “also recorded” stand apart in the source; their conditions may differ. Where no end group is shown, it is not given here.

These substances were tested on ovarian cancer cell aggregation and spheroid formation (assay: Spheroid assay for peptides (visual scale +1 to +5)). Settings: not given.
Type: cell-based, human
Procedure: Spheroids were formed from the NIH:OVCAR5 cell lines described above using the liquid overlay method. One milliliter of a single cell suspension was seeded at a concentration of 50,000 cells/ml in OptiMEM® media, into 24-well tissue culture plates coated with 0.5% Seakem agarose (in complete RPMI-1640). Plates were incubated at 37° C. in a humidified incubator with 5% CO2. At various time points up to 5 days, the plates were removed from the incubator and the spheroids were photographed with a Nikon CoolPix digital camera mounted on an Olympus CK2 inverted microscope with a 4× objective. The size of the spheroids was determined using the measure tool in Adobe Photoshop. The largest spheroids were quantified (20-90 spheroids/well), in a minimum of 8 wells, for a total of >300 spheroids per cell type.
The clinical relevance is that by blocking the formation of spheroids, the cells will be more sensitive to chemotherapy (which targets the single cells that proliferate more rapidly than spheroids).
The spheroid assay for peptides 1-30 were scored using a visual scale of +1 to +5. The controls were scored at +2 (24 hrs) and +4 (48 hrs). […] It may be harder to visually assess the size at 24 hours, since the spheroids are relatively small, but and perhaps some of the peptides are affecting cell division, and that is why the spheroids are smaller than the controls at 48 hours, but not 24 hrs (this can be easily assayed with an MTT assay).
“HSRSAAVTSEFHLV-NH2 (listed as Homo sapiens) [Peptide 15]” was tested, and the “spheroid size (in words)” value was “reduced spheroid size”.
In the case of “QARLRLRVLVPPLP-NH2 (listed as Homo sapiens) [Peptide 10]”, the “spheroid size (in words)” value is reported as “reduced spheroid size”.

Same assay, conditions: 24 hrs; visual scale of +1 to +5; Control = 2
Substance “HSRSAAVTSEFHLV-NH2 (listed as Homo sapiens) [Peptide 15]” has a Spheroid-24 of 1.
“ICEFATFPTGNRES-NH2 (listed as Homo sapiens) [Peptide 38]” showed a Spheroid-24 of 1.
With “LPSLNPGPALEEGQ-NH2 (listed as Homo sapiens) [Peptide 11]” the Spheroid-24 was ~1?.
“LRNAVQADEGEYEC-NH2 (listed as Homo sapiens) [Peptide 8]” gave a Spheroid-24 of 3.
“LVPSREAHQQSLAC-NH2 (listed as Homo sapiens) [Peptide 45]” was tested, and the Spheroid-24 was 3.
In the case of “LVPSRSMNGQPLTC-NH2 (listed as Homo sapiens) [Peptide 16]”, the Spheroid-24 is reported as 1.
For “NPNGTVTVISRYRLV-NH2 (listed as Homo sapiens) [Peptide 44]”, the Spheroid-24 was 3.
“QARLRLRVLVPPLP-NH2 (listed as Homo sapiens) [Peptide 10]” gave a Spheroid-24 of 1.

Same assay, conditions: 48 hrs; visual scale of +1 to +5; Control = 4
Work on “HSRSAAVTSEFHLV-NH2 (listed as Homo sapiens) [Peptide 15]” yielded a Spheroid-48 of 2.
“ICEFATFPTGNRES-NH2 (listed as Homo sapiens) [Peptide 38]” gave a Spheroid-48 of 3.
In the case of “LPSLNPGPALEEGQ-NH2 (listed as Homo sapiens) [Peptide 11]”, the Spheroid-48 is reported as 3.
“LVPSRSMNGQPLTC-NH2 (listed as Homo sapiens) [Peptide 16]” showed a Spheroid-48 of 1.
With “QARLRLRVLVPPLP-NH2 (listed as Homo sapiens) [Peptide 10]” the Spheroid-48 was 2.

Same assay, conditions: at 24 hrs
With “LRNAVQADEGEYEC-NH2 (listed as Homo sapiens) [Peptide 8]” the “spheroid size relative to the control (in words)” value was “slightly larger spheroid size”.

The substances below were run on nectin 4 protein on NIH:OVCAR-5 cells (assay: Effect of peptides on anti-Nectin-4 antibody binding to cells as determined by flow cytometry). Settings: Run Four; 150 μg/mL peptide, 30 minutes; Control 4 = 9,631.58.
Type: cell-based, human
Procedure: Confluent monolayers of cells were detached from 75 cm^2 tissue culture flasks using Accutase cell dissociation buffer (Innovative Cell Technologies, San Diego, Calif.), washed, and labeled with mouse IgG or mAbs against Nectin-4 or Nectin-1 (2.5 μg/10^6 cells) in Flow Buffer [phosphate buffered saline (PBS) containing 2.5% newborn calf serum and 0.02% sodium azide] for 30 min at 4° C.. Cells were washed and incubated with goat anti-mouse IgG F(ab′)2 (Jackson ImmunoResearch, West Grove, Pa.), then washed again and incubated with streptavidin-allophycocyanin conjugate (Jackson ImmunoResearch, West Grove, Pa.) for 30 min each. Cells were washed and fixed in Flow Buffer containing 1% formaldehyde and analyzed in the University of Minnesota Flow Cytometry Resource with a BD Accuri™ C6 flow cytometer (BD Biosciences, San Jose, Calif.) using the Accuri™ software.
Briefly, NIH:OVCAR-5 cells that natively express a moderate amount of nectin 4 protein were incubated for 30 minutes in 150 μg/mL of soluble peptide in DMSO. After incubation, the cells were washed, and then triple antibody stained using mouse anti-nectin 4 (or IgG control) primary antibody, biotinylated goat anti-mouse secondary antibody, and streptavidin APC tertiary antibody. Finally, utilizing the University of Minnesota flow core's Accuri C6 flow cytometer, the relative antibody binding affinity for control and peptide-treated samples was quantitated and compared. Data was collected for each of the 57 peptides generated.
In the case of “LVPSREAHQQSLAC-NH2 (listed as Homo sapiens) [Peptide 45]”, the “N4 MFI” value is reported as 9,868.29.
With “NPNGTVTVISRYRLV-NH2 (listed as Homo sapiens) [Peptide 44]” the “N4 MFI” value was 7,802.22.

Same assay, conditions: Run Four; Control 4 = 9.387504873
With “LVPSREAHQQSLAC-NH2 (listed as Homo sapiens) [Peptide 45]” the “N4 MFI/IgG MFI” value was 9.646.
In the case of “NPNGTVTVISRYRLV-NH2 (listed as Homo sapiens) [Peptide 44]”, the “N4 MFI/IgG MFI” value is reported as 8.481.

Same assay, conditions: Run Four; IgG control primary antibody; Control 4 = 1,026
In the case of “LVPSREAHQQSLAC-NH2 (listed as Homo sapiens) [Peptide 45]”, the “IgG MFI” value is reported as 1023.
In the case of “NPNGTVTVISRYRLV-NH2 (listed as Homo sapiens) [Peptide 44]”, the “IgG MFI” value is reported as 920.

Same assay, conditions: Run Four; antibody binding relative to Control 4 = 100
With “LVPSREAHQQSLAC-NH2 (listed as Homo sapiens) [Peptide 45]” the “nectin-4 antibody binding, percent of control” value was 102.8.
“NPNGTVTVISRYRLV-NH2 (listed as Homo sapiens) [Peptide 44]” was tested, and the “nectin-4 antibody binding, percent of control” value was 79.97.

Same assay, conditions: Run One; 150 μg/mL peptide, 30 minutes; Control 1 = 15,015
For “HSRSAAVTSEFHLV-NH2 (listed as Homo sapiens) [Peptide 15]”, the “N4 MFI” value was 7,980.
For “LPSLNPGPALEEGQ-NH2 (listed as Homo sapiens) [Peptide 11]”, the “N4 MFI” value was 15,211.
In the case of “LRNAVQADEGEYEC-NH2 (listed as Homo sapiens) [Peptide 8]”, the “N4 MFI” value is reported as 20,015.
In the case of “LVPSRSMNGQPLTC-NH2 (listed as Homo sapiens) [Peptide 16]”, the “N4 MFI” value is reported as 12,161.
“QARLRLRVLVPPLP-NH2 (listed as Homo sapiens) [Peptide 10]” was tested, and the “N4 MFI” value was 4,119.

Same assay, conditions: Run One; 150 μg/mL peptide, 30 minutes; IgG control primary antibody; Control 1 = 1,670
In the case of “HSRSAAVTSEFHLV-NH2 (listed as Homo sapiens) [Peptide 15]”, the “IgG MFI” value is reported as 2,158.
For “LPSLNPGPALEEGQ-NH2 (listed as Homo sapiens) [Peptide 11]”, the “IgG MFI” value was 2,268.
“LRNAVQADEGEYEC-NH2 (listed as Homo sapiens) [Peptide 8]” was tested, and the “IgG MFI” value was 1,670.
For “LVPSRSMNGQPLTC-NH2 (listed as Homo sapiens) [Peptide 16]”, the “IgG MFI” value was 2,432.
With “QARLRLRVLVPPLP-NH2 (listed as Homo sapiens) [Peptide 10]” the “IgG MFI” value was 2,452.

Same assay, conditions: Run One; Control 1 = 8.99
For “HSRSAAVTSEFHLV-NH2 (listed as Homo sapiens) [Peptide 15]”, the “N4 MFI/IgG MFI” value was 3.70.
“LPSLNPGPALEEGQ-NH2 (listed as Homo sapiens) [Peptide 11]” was tested, and the “N4 MFI/IgG MFI” value was 6.71.
In the case of “LRNAVQADEGEYEC-NH2 (listed as Homo sapiens) [Peptide 8]”, the “N4 MFI/IgG MFI” value is reported as 11.99.
“LVPSRSMNGQPLTC-NH2 (listed as Homo sapiens) [Peptide 16]” was tested, and the “N4 MFI/IgG MFI” value was 5.00.
For “QARLRLRVLVPPLP-NH2 (listed as Homo sapiens) [Peptide 10]”, the “N4 MFI/IgG MFI” value was 1.68.

Same assay, conditions: Run One; antibody binding relative to Control 1 = 100.00
With “HSRSAAVTSEFHLV-NH2 (listed as Homo sapiens) [Peptide 15]” the “nectin-4 antibody binding, percent of control” value was 43.63.
“LPSLNPGPALEEGQ-NH2 (listed as Homo sapiens) [Peptide 11]” was tested, and the “nectin-4 antibody binding, percent of control” value was 96.99.
With “LRNAVQADEGEYEC-NH2 (listed as Homo sapiens) [Peptide 8]” the “nectin-4 antibody binding, percent of control” value was 137.47.
With “LVPSRSMNGQPLTC-NH2 (listed as Homo sapiens) [Peptide 16]” the “nectin-4 antibody binding, percent of control” value was 72.90.
In the case of “QARLRLRVLVPPLP-NH2 (listed as Homo sapiens) [Peptide 10]”, the “nectin-4 antibody binding, percent of control” value is reported as 12.49.

Same assay, conditions: Run Three; 150 μg/mL peptide, 30 minutes; Control 3 = 13,070.20
“ICEFATFPTGNRES-NH2 (listed as Homo sapiens) [Peptide 38]” was tested, and the “N4 MFI” value was 12,128.26.

Same assay, conditions: Run Three; Control 3 = 9.83
For “ICEFATFPTGNRES-NH2 (listed as Homo sapiens) [Peptide 38]”, the “N4 MFI/IgG MFI” value was 7.73.

Same assay, conditions: Run Three; IgG control primary antibody; Control 3 = 1330
“ICEFATFPTGNRES-NH2 (listed as Homo sapiens) [Peptide 38]” was tested, and the “IgG MFI” value was 1568.

Same assay, conditions: Run Three; antibody binding relative to Control 3 = 100.00
For “ICEFATFPTGNRES-NH2 (listed as Homo sapiens) [Peptide 38]”, the “nectin-4 antibody binding, percent of control” value was 89.95.

Same assay, conditions: flow cytometry; 150 μg/mL peptide
In the case of “HSRSAAVTSEFHLV-NH2 (listed as Homo sapiens) [Peptide 15]”, the “nectin-4 antibody binding compared to untreated control cells (in words)” value is reported as “reduction in nectin-4 antibody binding; also recorded: reduced antibody binding”.
With “LRNAVQADEGEYEC-NH2 (listed as Homo sapiens) [Peptide 8]” the “nectin-4 antibody binding compared to untreated control cells (in words)” value was “increased the binding of the Nectin-4 antibody to cells”.
For “QARLRLRVLVPPLP-NH2 (listed as Homo sapiens) [Peptide 10]”, the “nectin-4 antibody binding compared to untreated control cells (in words)” value was “reduction in nectin-4 antibody binding; also recorded: reduced antibody binding”.

Same assay, conditions: summary table; Nectin-4 antibody binding relative to control = 100
“HSRSAAVTSEFHLV-NH2 (listed as Homo sapiens) [Peptide 15]” showed a Flow binding of 44%.
In the case of “LRNAVQADEGEYEC-NH2 (listed as Homo sapiens) [Peptide 8]”, the Flow binding is reported as 137%.
Substance “QARLRLRVLVPPLP-NH2 (listed as Homo sapiens) [Peptide 10]” has a Flow binding of 12.50%.
